Laboratory results from patent publication US20260174741A1, “METHODS OF REDUCING MIRO1 OR PHOSPHORYLATED ALPHA-SYNUCLEIN” (Acurex Biosciences Corporation, priority 2022, published 2026).
Read-outs that look alike come from different tables or passages of the source.

Tests used:
[1] = system: tyrosine-hydroxylase positive (TH+) dopaminergic neurons; experiment: Rat primary midbrain neuron co-culture, alpha-synuclein oligomer challenge with co-dosed/pre-treated compound: TH+ neuron count and neurite length; format: cell-based; conditions: for EC50: Rattus norvegicus, Neuron; for TH+ neurite length / TH+ neuron count: absence of any neuronal challenge; for dopamine neuron survival / dopamine neuron neurite length: dose-response experiment; for dopamine neuron survival: alpha-synuclein oligomer challenge (FIG. 2A, 5A); for dopamine neuron neurite length: alpha-synuclein oligomer challenge (FIG. 2B, 5B); for TH+ dopaminergic neuron neurite length / TH-positive dopaminergic neuron viability: immunocytochemistry, alpha-synuclein oligomers 500 nM, 96 hours
Description: (§1) The neuronal challenge was alpha-synuclein oligomers.
(§2) After incubation with alpha-synuclein (α-syn) oligomer, cells were fixed by a solution of 4% paraformaldehyde for 20 min at room temperature, the control conditions were fixed as well following the same procedure. The cells were then permeabilized and non-specific sites were blocked with a solution of phosphate buffered saline containing (PBS) with saponin and FCS for 15 min at room temperature. Cells were incubated with a chicken Anti-Tyrosine Hydroxylase antibody (TH, Abcam, ref 76442), a mouse monoclonal Anti-α-syn P129 antibody (Abcam, ref ab184674) and a Rabbit polyclonal Anti-Miro1 antibody (Sigma, ref: HPA010687) in PBS with saponin and FCS overnight at 4° C. […] Nuclei of cells were labelled by a fluorescent marker (Hoechst solution) in the same solution.
(§3) For each well of culture, pictures were taken using InCell Analyzer™ 2200 (GE Healthcare) with 20× magnification. All the images were taken in the same conditions. The number of dopaminergic neurons (TH), the neurite length of dopaminergic neurons, the signal of phosphorylated 129 of α-syn in dopaminergic neurons and the signal of Miro1 in dopaminergic neurons were automatically evaluated with Developer system analysis (GE Healthcare). All values were expressed as mean±standard error of the mean. Statistical analyses were done on the different conditions (ANOVA followed by Dunnett's test).
(§4) In an initial study, rat primary midbrain neuron co-cultures were incubated with alpha-synuclein oligomer alone, with 400 nM Compound 1, or with positive control.
(§5) Immunocytochemistry was performed for DAPI (nuclear dye), Tyrosine Hydroxylase (TH, a marker for dopaminergic neurons), and phospho-Serine129 alpha-synuclein (pS129 α-syn, a pathogenic form of alpha-synuclein found in Lewy Body pathology) in primary rat midbrain neuron co-cultures. In naive untreated neuronal cultures, healthy TH-positive dopaminergic neurons with elaborate neurites were observed and there was very low pS129 α-synbackground signal. When these neuronal cultures were stressed with toxic exogenous alpha-synuclein oligomers (500 nM, 96 hours), there was a large and statistically significant (1) loss of TH+dopaminergic neuron viability, (2) decrease of TH+dopaminergic neuron neurite length, (3) increase in pS129 α-syn-positive Lewy Body formation, and (4) increase in Miro1 protein levels.

[2] = system: phosphorylated serine-129 (pS129) alpha-synuclein; experiment: Rat primary midbrain neuron co-culture, alpha-synuclein oligomer challenge with co-dosed/pre-treated compound: pS129 alpha-synuclein; format: cell-based; conditions: for IC50: Rattus norvegicus, Neuron, read-out: IC50 for lowering pathogenic pS129 alpha-synuclein; for number of pS129+ TH+ neurons: absence of any neuronal challenge; for levels of pathogenic pS129 alpha-synuclein: dose-response experiment, alpha-synuclein oligomer challenge (FIG. 3A, 6A); for pS129 alpha-syn-positive Lewy Body formation / pS129 alpha-syn-positive Lewy Body formation in TH-negative non-dopaminergic neurons: immunocytochemistry; for pS129 alpha-syn-positive Lewy Body formation: alpha-synuclein oligomers 500 nM, 96 hours; for pS129 alpha-syn-positive Lewy Body formation in TH-negative non-dopaminergic neurons: alpha-synuclein oligomers
Description: as §1, §2, §3, §4, §5

Miro1 [3] = experiment: Rat primary midbrain neuron co-culture, alpha-synuclein oligomer challenge with co-dosed/pre-treated compound: Miro1 levels; format: cell-based; conditions: for Miro1 levels: absence of any neuronal challenge; for rescue of Miro1 elevation due to alpha-synuclein oligomer challenge: dose-response experiment (FIG. 3B, 6B); for Miro1 protein levels: immunocytochemistry, alpha-synuclein oligomers 500 nM, 96 hours; for Miro1 release: initial study
Description: as §1, §2, §3, §4, §5

[4] = system: TH+ neurite length of rat dopaminergic neurons; experiment: Interventional treatment of rat dopaminergic neurons after alpha-synuclein oligomer injury: TH+ neurite length; format: cell-based; conditions: interventional: 2 days alpha-syn oligomer, then 2 more days with compound
Description: (§6) Rat dopaminergic neurons were cultured as previously described (Schinelli, S. et al. Journal of Neurochemistry 1988, 50(6), pages 1900-1907). After 7 days of culture, cells were challenged with alpha-synuclein oligomer (500 nM) for 48 hours. […] By condition, N=6 wells were performed and one plate of 96 wells were performed.
(§7) After 4 days of incubation with α-syn oligomer, cells were fixed by a solution of 4% paraformaldehyde for 20 min at room temperature, the control conditions were fixed as well following the same procedure. The cells were then permeabilized and non-specific sites were blocked with a solution of phosphate buffered saline containing (PBS) with saponin and FCS for 15 min at room temperature. […]
as §3, with “All the images were taken in the same conditions.” left out, “Statistical analyses were done on the different conditions (ANOVA followed by Dunnett's test).” left out

[5] = system: phosphorylated Ser129 alpha-synuclein; experiment: Interventional treatment of rat dopaminergic neurons after alpha-synuclein oligomer injury: phosphorylated Ser129-positive TH+ neurons; format: cell-based; conditions: interventional: 2 days alpha-syn oligomer 500 nM, then 2 more days with compound
Description: as §6, §7
as §3, with “All the images were taken in the same conditions.” left out, “Statistical analyses were done on the different conditions (ANOVA followed by Dunnett's test).” left out

Miro1 [6] = experiment: Interventional treatment of rat dopaminergic neurons after alpha-synuclein oligomer injury: Miro1 levels in TH+ neurons; format: cell-based; conditions: 4 days total, doses from 123 nM to 10 μM, compared to no treatment (FIG. 9)
Description: Rat dopaminergic neurons were cultured as previously described (Schinelli, S. et al. Journal of Neurochemistry 1988, 50(6), pages 1900-1907). After 7 days of culture, cells were challenged with alpha-synuclein oligomer (500 nM) for 48 hours. Subsequent to the challenge, cells were subjected to alpha-synuclein (α-syn) oligomer (500 nM)+various concentrations of Compound 1 (0, 14, 41, 123, 370, 1100, 3300, and 10000 nM) for an additional 48 hours. By condition, N=6 wells were performed and one plate of 96 wells were performed.
as §7
as §3, with “All the images were taken in the same conditions.” left out, “Statistical analyses were done on the different conditions (ANOVA followed by Dunnett's test).” left out

[7] = system: tyrosine-hydroxylase positive (TH+) dopaminergic neurons; experiment: Rat primary midbrain neuron co-culture, alpha-synuclein oligomer challenge with co-dosed/pre-treated compound: TH+ neuron count and neurite length; format: cell-based; conditions: initial study, 40 nM, incubated with alpha-synuclein oligomer (FIG. 4A)
[8] = system: Parkinson's disease subject-derived fibroblast lines; experiment: Ferroptosis assay: human fibroblast survival assay with RSL3 challenge; format: cell-based; conditions: DAPI-positive nuclei count, read-out: EC50 for cell survival (ferroptosis inhibition)
Description: Human fibroblast survival assay. All fibroblasts were obtained from the National Institute of Neurological Disorders and Stroke (NINDS) cell line repository housed at Rutgers University. Compounds were tested in at least one of the following Parkinson's disease subject-derived fibroblast lines: Line ND29802 (LRRK2 G2019S mutation carrier), Line ND40996 (SNCA A53T mutation carrier), or Line ND34263 (GBA N370S mutation carrier).
Human fibroblasts were seeded into 96-well plates on Day 0. On Day 1, fibroblasts were challenged with RSL3 (a ferroptosis activator, CAS No. 1219810-16-8) alone or in co-treatment with test compound administered in dose response. On Day 2, fibroblasts were fixed and stained by the nuclear stain 4′, 6-diamidino-2-phenylindole (DAPI), and the number of DAPI-positive nuclei were counted for each condition using the Yokogawa CQ1 imaging platform to quantify the EC50 for cell survival.

[9] = system: phosphorylated serine-129 (pS129) alpha-synuclein; experiment: Rat primary midbrain neuron co-culture, alpha-synuclein oligomer challenge with co-dosed/pre-treated compound: pS129 alpha-synuclein; format: cell-based; conditions: initial study, 40 nM, incubated with alpha-synuclein oligomer (FIG. 4C)
ferroptosis = conditions: described in Example 2 of PCT/US23/73312 as Compound 4; read-out: ferroptosis inhibitor EC50; cited from earlier work

For `C[C@@H](NC(=O)Cc1ccc(C(F)(F)F)cc1)c1cc2cnn(CC(F)(F)F)c2cn1` [Compound 1, (R)—N-(1-(1-(2,2,2-trifluoroethyl)-1H-pyrazolo[3,4-c]pyridin-5-yl)ethyl)-2-(4-(trifluoromethyl)phenyl)acetamide], the EC50 ([1]; alpha-synuclein oligomer challenge, read-out: EC50 for rescue of TH-positive neurite length) was less than 150 nM, the EC50 ([1]; alpha-synuclein oligomer challenge, read-out: EC50 for rescue of TH-positive neuron viability) was roughly 250 nM and the “TH+ neurite length” value [1] was “did not affect”. For the same compound, the “TH+ neuron count” value [1] was “did not affect”, the dopamine neuron survival [1] was “rescued dopamine neuron survival in a dose-dependent fashion” and the “dopamine neuron neurite length” value [1] was “rescued dopamine neuron neurite length in a dose-dependent fashion”. For the same compound, the “TH+ dopaminergic neuron neurite length” value ([1]; pre-treated 400 nM) was “rescue of TH+dopaminergic neuron neurite length”, the “TH-positive dopaminergic neuron viability” value ([1]; pre-treated 400 nM) was “rescue of TH-positive dopaminergic neuron viability” and the “TH+ neuronal loss induced by alpha-synuclein oligomer” value ([1]; initial study, 400 nM, incubated with alpha-synuclein oligomer (FIG. 1A)) was “prevented TH+ neuronal loss”. For the same compound, the IC50 ([2]; alpha-synuclein oligomer challenge) was less than 125 nM, the “number of pS129+ TH+ neurons” value [2] was “did not affect” and the “levels of pathogenic pS129 alpha-synuclein” value [2] was “lowered levels of pathogenic pS129 α-synin a dose-dependent fashion”. The “pS129 alpha-syn-positive Lewy Body formation” value ([2]; pre-treated 400 nM) was “decrease/prevention in pS129 α-syn-positive Lewy Body formation”, the “pS129 alpha-syn-positive Lewy Body formation in TH-negative non-dopaminergic neurons” value ([2]; pre-treatment 1.1 uM) was “robust decrease/prevention” and the “pathogenic phosphorylated serine-129 (pS129) alpha-synuclein levels” value ([2]; initial study, 400 nM, incubated with alpha-synuclein oligomer (FIG. 1C)) was “reduction of pathogenic phosphorylated serine-129 (pS129) alpha-synuclein levels”. For the same compound, the Miro1 levels (Miro1 [3]) was “did not affect”, the “rescue of Miro1 elevation due to alpha-synuclein oligomer challenge” value (Miro1 [3]) was “did not reach statistical significance” and the Miro1 protein levels (Miro1 [3]; pre-treated 400 nM) was “decrease in Miro1 protein levels”. For the same compound, the Miro1 release (Miro1 [3]; 400 nM, incubated with alpha-synuclein oligomer (FIG. 1B)) was “statistically significant rescue of Miro1 release”, the “TH+ neurite length” value ([4]; doses of 370 nM, 3.3 µM, or 10 µM, compared to no treatment (FIG. 8B)) was “significantly restored” and the “levels of phosphorylated Ser129-positive TH+ neurons” value ([5]; doses from 370 nM to 10 μM, compared to no treatment (FIG. 7B)) was “significantly reduced”. For the same compound, the “Miro1 levels in TH+ neurons” value (Miro1 [6]) was “statistically significantly reduced” and the “TH+ neuronal loss induced by alpha-synuclein oligomer” value [7] was “prevented TH+ neuronal loss”.

With `CCN1CCN(c2ccc3nc4ccc(=O)cc-4sc3c2)CC1` [Compound 5, 7-(4-ethylpiperazin-1-yl)-3H-phenothiazin-3-one] the EC50 ([1]; read-out: EC50 for rescue of TH-positive neurite length) was less than 0.4 nM, the EC50 ([1]; read-out: EC50 for rescue of TH-positive neuron viability) was roughly 7 nM and the “TH+ neurite length” value [1] was “did not affect”. The “TH+ neuron count” value [1] was “did not affect”, the dopamine neuron survival [1] was “rescued dopamine neuron survival in a dose-dependent fashion” and the “dopamine neuron neurite length” value [1] was “rescued dopamine neuron neurite length in a dose-dependent fashion”. The “TH+ dopaminergic neuron neurite length” value ([1]; pre-treated 40 nM) was “rescue of TH+dopaminergic neuron neurite length”, the “TH-positive dopaminergic neuron viability” value ([1]; pre-treated 40 nM) was “rescue of TH-positive dopaminergic neuron viability” and the IC50 [2] was less than 0.4 nM. The “number of pS129+ TH+ neurons” value [2] was “did not affect”, the “levels of pathogenic pS129 alpha-synuclein” value [2] was “lowered levels of pathogenic pS129 α-synin a dose-dependent fashion” and the “pS129 alpha-syn-positive Lewy Body formation” value ([2]; pre-treated 40 nM) was “decrease/prevention in pS129 α-syn-positive Lewy Body formation”. The “pS129 alpha-syn-positive Lewy Body formation in TH-negative non-dopaminergic neurons” value ([2]; pre-treatment 3.7 nM) was “robust decrease/prevention”, the Miro1 levels (Miro1 [3]) was “did not affect” and the “rescue of Miro1 elevation due to alpha-synuclein oligomer challenge” value (Miro1 [3]) was “did not reach statistical significance”. For the same compound, the Miro1 protein levels (Miro1 [3]; pre-treated 40 nM) was “decrease in Miro1 protein levels”, the Miro1 release (Miro1 [3]; 40 nM, incubated with alpha-synuclein oligomer (FIG. 4B)) was “statistically significant rescue of Miro1 release” and the EC50 [8] was 3.6 nM. The “pathogenic phosphorylated serine-129 (pS129) alpha-synuclein levels” value [9] was “reduction of pathogenic phosphorylated serine-129 (pS129) alpha-synuclein levels”.

For `CC(C)N1[C@@H]2CC[C@H]1CN(c1ccc3nc4ccc(=O)cc-4sc3c1)C2` [Compound 9], the “TH+ neurite length” value ([4]; doses of 11 nM, 33 nM, or 100 nM, compared to no treatment (FIG. 11B)) is listed as “significantly restored”, the “levels of phosphorylated Ser129-positive TH+ neurons” value ([5]; doses of 11 nM, 33 nM, or 100 nM, compared to no treatment (FIG. 10B)) is listed as “significantly reduced” and the EC50 (ferroptosis) is listed as 2.9 nM.
